Measured values as given in patent US9687479B2, “Multisubstituted aromatic compounds as serine protease inhibitors” (VERSEON CORPORATION, priority 2013, dated 2017).

Biological target: Human KLKB1 (Homo sapiens (Human), UniProt P03952)
Assay: KLKB1 kallikrein activity inhibition assay (chromogenic substrate S-2302)
Assay type: biochemical
Experimental: The KLKB1 kallikrein activity reported herein (e.g., Tables B, C, and D) was obtained as follows. Human KLKB1 protein was obtained from Enzyme Research Labs. […] KLKB1 was assayed in buffer containing 0.05 M Tris (pH 7.4), 0.01 M NaCl and 0.2% w/v PEG-8000. The final concentration of enzyme used was 3 nM KLKB1. […] All assays were performed in 96-well microtiter plates at room temperature (RT). […] Inhibitor IC50 values were determined by adding test compound as ten point, three-fold serial dilutions in buffer solution, as known in the art. The plate was read at 10 minutes after substrate addition. The IC50 was calculated by plotting the percent (%) inhibition against compound concentration and fitting the data to a constrained four parameter sigmoidal curve, as known in the art.

[1] = 3 nM KLKB1, 250 μM S-2302, 10 min pre-incubation, RT

Human KLKB1, sequence (P03952 391-638 limits assumed): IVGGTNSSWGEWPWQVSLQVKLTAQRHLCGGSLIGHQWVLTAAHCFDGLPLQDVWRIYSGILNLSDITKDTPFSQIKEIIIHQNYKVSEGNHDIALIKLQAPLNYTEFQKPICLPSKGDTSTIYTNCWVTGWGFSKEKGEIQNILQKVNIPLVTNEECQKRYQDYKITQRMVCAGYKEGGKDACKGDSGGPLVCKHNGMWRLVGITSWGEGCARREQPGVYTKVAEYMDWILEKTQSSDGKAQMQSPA
Human KLKB1, sequence (P03952 20-390 partner limits assumed): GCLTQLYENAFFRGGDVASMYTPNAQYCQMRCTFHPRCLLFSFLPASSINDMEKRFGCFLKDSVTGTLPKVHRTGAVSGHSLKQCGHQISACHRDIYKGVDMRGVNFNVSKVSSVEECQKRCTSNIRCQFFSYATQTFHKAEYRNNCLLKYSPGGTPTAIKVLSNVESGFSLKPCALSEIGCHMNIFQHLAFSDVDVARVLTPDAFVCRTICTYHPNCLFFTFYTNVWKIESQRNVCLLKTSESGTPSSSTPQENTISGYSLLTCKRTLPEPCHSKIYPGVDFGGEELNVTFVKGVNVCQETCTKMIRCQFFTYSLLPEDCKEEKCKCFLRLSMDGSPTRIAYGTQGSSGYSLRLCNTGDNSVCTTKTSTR

Row | Structure (SMILES) | IC50 (Table C) [µM] | also measured
1 | CC(C)OC(=O)n1nc(-c2cccnc2)nc1NCc1ccc(F)cc1 [Cmpd 410] | > 100 | –
2 | O=C(Oc1ccccc1)n1nc(-c2cccnc2)nc1NCc1ccc(F)cc1 [Cmpd 409] | > 100 | –
3 | Cc1cc(N(C)c2ccc(F)cc2)nc(N[C@@H]2CCc3c(N)cccc3C2)n1 [Cmpd 421, 2-N-[(2R)-5-amino-1,2,3,4-tetrahydronaphthalen-2-yl]-4-N-(4-fluorophenyl)-4-N,6-dimethylpyrimidine-2,4-diamine] | – | IC50 [1]: > 100 µM
4 | COc1ccc(CNc2nc(-c3cccnc3)nn2C(=O)C(C)(C)C)cc1 [Cmpd 326] | > 100 | –
5 | Cc1cc(N(C)c2cccc(F)c2)nc(N[C@@H]2CCc3c(N)cccc3C2)n1 [Cmpd 420, 2-N-[(2R)-5-amino-1,2,3,4-tetrahydronaphthalen-2-yl]-4-N-(3-fluorophenyl)-4-N,6-dimethylpyrimidine-2,4-diamine] | – | IC50 [1]: > 100 µM
6 | COc1ccc(CNc2nc(-c3ccccn3)nn2C(=O)C(C)(C)C)cc1 [Cmpd 319] | 10 to 100 | –
7 | COc1ccccc1C(=O)n1nc(-c2ccccn2)cc1NCc1ccco1 [Cmpd 283] | – | IC50 (Table B): > 100 µM
8 | CC(C)(C)C(=O)n1nc(-c2ccccn2)nc1NCc1ccccc1 [Cmpd 344] | 10 to 100 | –
9 | O=C(Cc1ccccc1)n1nc(-c2ccco2)nc1NCc1ccccc1 [Cmpd 343] | > 100 | –
10 | CCC(=O)n1nc(-c2ccncc2)nc1NCc1ccccc1 [Cmpd 356] | > 100 | –
11 | CC(C)(C)OC(=O)N1CCC(c2cc(NCc3ccc(Cl)s3)n(C(=O)c3ccsc3)n2)CC1 [Cmpd 298] | – | IC50 (Table B): > 100 µM
12 | O=C(c1c(F)cccc1F)n1nc(-c2ccccn2)nc1NCc1ccccc1 [Cmpd 394] | > 100 | –
13 | CC(C)(CO)C(=O)n1nc(C2CCNCC2)c(F)c1NCc1ccc(Cl)s1 [Cmpd 274] | – | IC50 (Table B): 1 to 10 µM
14 | COCC(=O)n1nc(-c2cccnc2)nc1NCc1ccc(F)cc1 [Cmpd 309] | > 100 | –
15 | CC(C)C(=O)n1nc(-c2cccnc2)nc1NCc1ccc(F)cc1 [Cmpd 310] | 10 to 100 | –
16 | CCC(=O)n1nc(-c2cccnc2)nc1NCc1ccc(F)cc1 [Cmpd 7] | 10 to 100 | –
17 | CC(C)(CO)C(=O)n1nc(C2CCOCC2)c(F)c1NCc1ccc(Cl)s1 [Cmpd 273] | – | IC50 (Table B): 10 to 100 µM
18 | O=C(Cc1ccccc1)n1nc(-c2cccnc2)nc1NCc1ccc(F)cc1 [Cmpd 311] | 1 to 10 | –
19 | CCCC(=O)n1nc(-c2ccccn2)nc1NCc1ccc(OC)cc1 [Cmpd 324] | 10 to 100 | –
20 | COc1ccccc1C(=O)n1nc(-c2cccnc2)nc1SCc1ccc(F)cc1 [Cmpd 14] | 0.1 to 1 | –
21 | O=C(CCc1ccccc1)n1nc(-c2ccccn2)nc1NCc1ccc(F)cc1 [Cmpd 305] | 10 to 100 | –
22 | CCC(=O)n1nc(-c2ccccn2)nc1NCc1ccc(F)cc1 [Cmpd 307] | 10 to 100 | –
23 | CCC(=O)n1nc(-c2ccccn2)nc1NCc1ccc(OC)cc1 [Cmpd 325] | 10 to 100 | –

Row | Structure (SMILES) | IC50 (Table C) [µM] | also measured
24 | O=C(NCc1ccc2[nH]cc(Cl)c2c1)[C@H]1CC(=O)N(Cc2ccccc2Cl)C1 [Cmpd 417, (3S)-N-[(3-chloro-1H-indol-5-yl)methyl]-1-[(2-chlorophenyl)methyl]-5-oxopyrrolidine-3-carboxamide] | – | IC50 [1]: 10 to 100 µM
25 | COc1ccc(CNc2nc(-c3cccnc3)nn2C(=O)Cc2ccccc2)cc1 [Cmpd 327] | 10 to 100 | –
26 | O=C(c1ccoc1)n1nc(-c2ccccn2)cc1NCc1ccc(Cl)s1 [Cmpd 288] | – | IC50 (Table B): 10 to 100 µM
27 | COc1ccc(CNc2nc(-c3ccccn3)nn2C(=O)CC(C)C)cc1 [Cmpd 322] | 10 to 100 | –
28 | COc1ccc(CNc2nc(-c3cccnc3)nn2C(=O)CCc2ccccc2)cc1 [Cmpd 329] | > 100 | –
29 | CC(C)(C)C(=O)n1nc(-c2ccco2)cc1NCc1ccc(Cl)s1 [Cmpd 270] | – | IC50 (Table B): > 100 µM
30 | COc1ccc(CNc2nc(-c3cccnc3)nn2C(=O)CC(C)C)cc1 [Cmpd 328] | > 100 | –
31 | CC(C)(C)OC(=O)N1CCC(c2cc(NCc3ccc(Cl)s3)n(C(=O)C(C)(C)C)n2)CC1 [Cmpd 297] | – | IC50 (Table B): > 100 µM
32 | CC(C)(C)C(=O)n1nc(-c2ccccn2)nc1NCc1ccc(F)cc1 [Cmpd 301] | 10 to 100 | –
33 | COc1ccccc1C(=O)n1nc(C2CCOCC2)cc1NCc1ccc(Cl)s1 [Cmpd 284] | – | IC50 (Table B): > 100 µM
34 | O=C(c1ccco1)n1nc(-c2ccccn2)nc1NCc1ccccc1 [Cmpd 8] | 1 to 10 | –
35 | COc1ccccc1C(=O)n1nc(-c2ccccc2)nc1NCc1nccs1 [Cmpd 333] | > 100 | –
36 | O=C(NCc1ccc2[nH]cc(Cl)c2c1)[C@H]1CC(=O)N(Cc2cccc(Cl)c2)C1 [Cmpd 418, (3S)-N-[(3-chloro-1H-indol-5-yl)methyl]-1-[(3-chlorophenyl)methyl]-5-oxopyrrolidine-3-carboxamide] | – | IC50 [1]: > 100 µM
37 | O=C(c1cccs1)n1nc(-c2ccccn2)nc1NCc1ccc(F)cc1 [Cmpd 10] | 1 to 10 | –
38 | O=C(CCc1ccccc1)n1nc(-c2ccncc2)nc1NCc1ccccc1 [Cmpd 354] | > 100 | –
39 | CCCC(=O)n1nc(-c2ccccn2)nc1NCc1ccc(F)cc1 [Cmpd 306] | 10 to 100 | –
40 | Cc1cc(N(C)c2ccccc2F)nc(N[C@@H]2CCc3c(N)cccc3C2)n1 [Cmpd 419, 2-N-[(2R)-5-amino-1,2,3,4-tetrahydronaphthalen-2-yl]-4-N-(2-fluorophenyl)-4-N,6-dimethylpyrimidine-2,4-diamine] | – | IC50 [1]: > 100 µM
41 | COc1ccc(CNc2nc(-c3cccnc3)nn2C(=O)c2ccoc2)cc1 [Cmpd 339] | > 100 | –
42 | CC(C)CC(=O)n1nc(-c2ccccn2)nc1NCc1ccc(F)cc1 [Cmpd 304] | 10 to 100 | –
43 | CC(C)(C)C(=O)n1nc(-c2ccccn2)c(F)c1NCc1ccccc1 [Cmpd 279] | – | IC50 (Table B): > 100 µM
44 | O=C(CCc1ccccc1)n1nc(-c2cccnc2)nc1NCc1ccc(F)cc1 [Cmpd 313] | 10 to 100 | –
45 | O=C(NCc1ccc2[nH]cc(Cl)c2c1)[C@@H]1CC(=O)N(Cc2ccc(Cl)cc2)C1 [Cmpd 414, (3R)-N-[(3-chloro-1H-indol-5-yl)methyl]-1-[(4-chlorophenyl)methyl]-5-oxopyrrolidine-3-carboxamide] | – | IC50 [1]: > 100 µM

Further lines, with some results ahead:

Row | IC50 (Table C) [µM] | Structure (SMILES) | also measured
46 | 10 to 100 | CCCC(=O)n1nc(-c2ccccn2)nc1NCc1ccccc1 [Cmpd 347] | –
47 | 10 to 100 | CC(C)CC(=O)n1nc(-c2ccccn2)nc1NCc1ccccc1 [Cmpd 346] | –
48 | 10 to 100 | CC(C)C(=O)n1nc(-c2ccccn2)nc1NCc1ccccc1 [Cmpd 345] | –
49 | 10 to 100 | O=C(c1ccsc1)n1nc(-c2ccccn2)nc1NCc1ccccc1 [Cmpd 405] | –
50 | 1 to 10 | COc1ccc(CNc2nc(-c3cccnc3)nn2C(=O)c2ccsc2)cc1 [Cmpd 382] | –
51 | > 100 | COc1ccccc1C(=O)n1nc(-c2ccccc2)nc1NCc1ccc(Cl)o1 [Cmpd 383] | –
52 | 1 to 10 | COc1ccccc1C(=O)n1nc(-c2ccccn2)nc1NCc1ccccc1 [Cmpd 397] | –
53 | 1 to 10 | COc1ccc(CNc2nc(-c3ccccn3)nn2C(=O)c2ccco2)cc1 [Cmpd 336] | –
54 | 10 to 100 | CCC(=O)n1nc(-c2ccccn2)nc1NCc1ccccc1 [Cmpd 348] | –
55 | > 100 | COc1ccc(CNc2nc(-c3cccnc3)nn2C(=O)c2cccs2)cc1 [Cmpd 381] | –
56 | 1 to 10 | O=C(c1ccco1)n1nc(-c2ccncc2)nc1NCc1ccccc1 [Cmpd 400] | –
57 | 1 to 10 | O=C(c1cccnc1)n1nc(-c2cccnc2)nc1NCc1cccs1 [Cmpd 365] | –
58 | 1 to 10 | COc1ccccc1C(=O)n1nc(-c2cccs2)nc1NCc1ccccc1 [Cmpd 398] | –
59 | 10 to 100 | CCC(=O)n1nc(-c2cccnc2)nc1NCc1ccccc1 [Cmpd 349] | –
60 | > 100 | COc1ccc(CNc2nc(-c3ccccn3)nn2C(=O)c2cccs2)cc1 [Cmpd 379] | –
61 | 1 to 10 | O=C(c1ccoc1)n1nc(-c2cccnc2)nc1NCc1ccc(F)cc1 [Cmpd 372] | –
62 | 0.1 to 1 | O=C(c1ccccc1)n1nc(-c2cccnc2)nc1NCc1ccc(F)cc1 [Cmpd 359] | –
63 | 10 to 100 | COc1ccccc1C(=O)n1nc(-c2ccccc2)nc1NCc1ccsc1 [Cmpd 335] | –

Row | IC50 (Table C) [µM] | Structure (SMILES) | also measured
64 | 1 to 10 | COc1ccccc1C(=O)n1nc(-c2ccccn2)nc1NCc1ccc(F)cc1 [Cmpd 367] | –
65 | 1 to 10 | O=C(c1ccco1)n1nc(-c2cccnc2)nc1NCc1ccc(F)cc1 [Cmpd 370] | –
66 | 0.1 to 1 | O=C(c1ccsc1)n1nc(-c2ccccn2)nc1NCc1ccc(F)cc1 [Cmpd 375] | –
67 | 0.1 to 1 | COc1ccccc1C(=O)n1nc(C2CCN(C(=O)C(C)(C)C)CC2)nc1NCc1ccc(Cl)s1 [Cmpd 341] | –
68 | 10 to 100 | CCCC(=O)n1nc(-c2cccnc2)nc1NCc1ccc(OC)cc1 [Cmpd 330] | –
69 | < 0.1 | COc1ccccc1C(=O)n1nc(C2CN(S(=O)(=O)N(C)C)C2)nc1NCc1ccc(Cl)s1 [Cmpd 364] | –
70 | 1 to 10 | COc1ccc(CNc2nc(-c3ccccn3)nn2C(=O)c2ccsc2)cc1 [Cmpd 380] | –
71 | 0.1 to 1 | COc1ccccc1C(=O)n1nc(C2CN(C(=O)OC(C)(C)C)C2)nc1NCc1ccc(Cl)s1 [Cmpd 411] | –
72 | 1 to 10 | O=C(c1ccco1)n1nc(-c2ccccn2)nc1NCc1ccc(F)cc1 [Cmpd 369] | –
73 | 0.1 to 1 | COc1ccccc1C(=O)n1nc(C2CCOCC2)nc1NCc1ccc(Cl)s1 [Cmpd 385] | –
74 | 0.1 to 1 | O=C(c1ccccc1)n1nc(-c2ccncc2)nc1NCc1ccccc1 [Cmpd 363] | –
75 | 10 to 100 | CCC(=O)n1nc(-c2cccnc2)nc1NCc1cccs1 [Cmpd 340] | –
76 | 1 to 10 | COc1ccccc1C(=O)n1nc(-c2cccnc2)nc1NCc1ccc(F)cc1 [Cmpd 368] | –
77 | 1 to 10 | O=C(c1cccs1)n1nc(-c2cccnc2)nc1NCc1ccc(F)cc1 [Cmpd 376] | –
78 | 10 to 100 | O=C(c1ccoc1)n1nc(-c2ccncc2)nc1NCc1ccccc1 [Cmpd 402] | –
79 | > 100 | O=C(c1cccs1)n1nc(-c2ccncc2)nc1NCc1ccccc1 [Cmpd 406] | –
80 | 0.1 to 1 | O=C(c1ccccc1Cl)n1nc(-c2ccccn2)nc1NCc1ccccc1 [Cmpd 395] | –
